A word on the melting point: it is the temperature of the solid-liquid transition.

Experimental findings from a melting point compilation (Tetko et al.; mined from patent text by program, amines drawn as free bases though some values may be those of a salt) are described below.

As to `COc1ccc(N2C(=O)C(N3C(=O)c4ccccc4C3=O)C2c2ccc(C(=O)O)cc2)cc1` (configuration not stated), the melting point came to 265 °C.
The value for `O=C(O)c1ccc2oc(Cc3cccnc3)cc2c1` was 197 to 198 °C; that for `Oc1ccc(Nc2n[nH]c3ncnc(Nc4cccc(Cl)c4)c23)cc1` was above 260 °C.
Then `Cc1cn(-c2cc(NC(=O)OC(C)(C)C)cc(C(F)(F)F)c2)cn1`, with 186 to 188 °C; and `CCN(CC)c1ccc2c(c1)Oc1cc(N(Cc3ccccc3)C(C)=O)c3ccccc3c1N2C(C)=O`, with 202 to 204 °C.
Then `C[C@]12CCC3=C4CCC(=O)C=C4CC[C@H]3[C@@H]1CCC21OCCC1O` (some centres not stated), with 180 °C; and `CCn1cc(C(N)=O)c(=O)c2ccc(-c3ccccn3)cc21`, with 245 to 246 °C; and `CCC(NC(C)=O)c1ccc(CN2CCN(c3ccccc3)CC2)cc1` (configuration not stated), with 109 to 110 °C.
The molecule `O=c1oc2cc(N3CCN(CCF)CC3)ccc2cc1-c1nc2ccccc2s1` showed a melting point of 246 °C.
Molecule `COC(=O)Cc1nn(Cc2ccc(Br)cc2F)c(=O)c2ccccc12` showed a melting point of 151 to 153 °C.
The value for `CC(=O)Nc1cccc2c1CCNC2=O` was 244 to 246 °C.
Then `Cc1c(S(C)=O)c(C=NO)nn1-c1c(Cl)cc(C(F)(F)F)cc1Cl` (configuration not stated), with 210 to 214 °C; and `COc1ccc2c(c1)c(Cc1nc(-c3ccc(Br)cc3)cs1)c(C)n2C(=O)c1ccc(Cl)cc1`, with 177 to 180 °C.
`O=C(Nc1nccs1)C(CC1CCCC1)c1ccc(C(F)(F)F)c(F)c1` (configuration not stated): the melting point fell in the range of 194 to 195 °C.
The value for `COc1ccc(C(=O)CC2CCCN(C)C2)cc1` (configuration not stated) was 89 to 92 °C; that for `CCOC(=O)C=Cc1cccc(C(=O)c2ccc(OC)cc2)c1` was 71 to 71.5 °C.
The value for `Cc1sc(C(=O)O)cc1CC#N` was 196 to 198 °C; that for `CC(=O)c1csc2ccc(F)cc12` was 90 to 92 °C.
Take `CCOc1sc(C(=O)N2CCCC2)c2c1-c1oncc1C(C)(C)C2`: the melting point was 123 to 126 °C.
The value for `CCOC(=O)c1nc2ccc(N)cc2c(O)c1C(=O)OCC` was 219 to 221 °C.
The value for `CN1CC(=O)N(c2cccnc2)C1=S` was 149 to 151 °C; that for `CCOC(=O)c1c2n(c3cc(N4CCN(C(C)=O)CC4)c(Cl)cc3c1=O)CS2` was 266 to 268 °C.
The value for `CC(C)(CO)NS(=O)(=O)c1cccc(NC(=O)c2cnn3c(C(F)F)cc(-c4ccc(C(F)(F)F)cc4)nc23)c1` was 232 °C; that for `Cc1oc(COc2ccc(/C=C/C=O)cc2)nc1-c1ccccc1` was 144 to 146 °C; that for `Cc1ccc(C#N)c(N2CCc3ccccc3CC2)n1` was 78.5 to 80.7 °C.
`Fc1cc(Cl)c(Br)c(Cl)c1` yielded a melting point of 83 °C.
The value for `O=C(O)COc1ccc(N2CC(=O)NS2(=O)=O)c(O)c1` was 185 to 188 °C; that for `CC(C(=O)O)c1ccc2oc(-c3ccc(Cl)cc3)nc2c1` (configuration not stated) was 190 °C; that for `CON(C)C(=O)/C=C/c1c(C2CC2)nc2ccccc2c1-c1ccc(F)cc1` was 141 °C.
Then `Cc1sc(C(=O)OCc2ccc3c(c2)OCO3)cc1NC(=O)NCc1ccccc1`, with 216 to 217 °C; and `CC(C)c1nsc(N2CCN(C(=O)Nc3noc4ccccc34)CC2)n1`, with 178 to 179 °C.
The value for `CCOCc1nc2c(N)nc3cc(OCc4ccc(C(F)(F)F)o4)ccc3c2n1CC(C)(C)NS(C)(=O)=O` was 186 to 188 °C; that for `CCCCc1nc2ccccn2c(=O)c1-c1ccc(Cl)c(OC)c1` was 113 to 115 °C; that for `COc1cccc(C2OC(=O)CC2C(=O)O)c1OC` (configuration not stated) was 129 to 130 °C.
Molecule `Cc1nnc(SCc2ccccc2)s1` came in with a melting point of 60 to 63 °C.
The value for `Cc1c(-c2ccc(C3CCCCC3)cc2)nc2ccc(F)cc2c1C(=O)O` was 316 to 323 °C; that for `COc1ccc2c(n1)c(CC[N+](=O)[O-])c1n2Cc2ccccc2-1` was 127 to 128 °C; that for `O=c1[nH]nc(Cl)cc1Nc1ccc(-c2ccncc2)nn1` was 263 to 265 °C.
Then `Brc1ccc2c(CCN3CCCCC3)c(-c3ccccc3)[nH]c2c1`, with above 230 °C.
Then `Cn1c(C(F)(F)F)nn(-c2ccc(Cl)c(C(=O)O)c2)c1=O`, with 223 °C.
For `CC(C)CCN1CNC(=O)C12CCNCC2`, the melting point is 103 to 105 °C.
Consider `CN1CC(C(=O)c2coc(Cc3ccc(F)cc3)c2)=C(O)C1=O`, for which the melting point lay in the range of 158 to 160 °C.
Regarding `O=C(O)CCNC(=O)C1=C(C(=O)Nc2ccc(Cl)cc2F)CCCC1`, the melting point is 158 to 159 °C.
Then `O=S(=O)(CCO)c1ccccc1`, with 87 to 89 °C.
With `CCC(=CC(CNC(=O)c1cnc2ccccc2c1)=NO)C(C)[N+](=O)[O-]` (configuration not stated), the melting point was in the range of 168 to 170 °C.
The value for `COc1cc(CCc2ccc(N)cc2)cc(OC)c1OC` was 84 to 85 °C; that for `CCOC(=O)CC(NC(=O)c1ccc(Cl)cc1)C(=O)c1cccs1` (configuration not stated) was 112 to 113 °C; that for `CN1CCN(c2nc3c(c(N4CCOCC4)n2)SCCC3)CC1` was 100 °C.
Then `N=C(N)Nc1nc(-c2csc(N)n2)cs1`, with 274 °C.
Then `CCC(Oc1ccc(Cl)c(C)c1)C(=O)NCc1ccccc1Cl` (configuration not stated), with 107 to 109 °C; and `CC(=O)Nc1c(C(N)=O)nnn1Cc1ccccc1Cl`, with 140 to 142 °C.
`NC(=O)c1ccc(C(F)(F)F)cc1N1CCc2nc(NS(=O)(=O)c3cc(C(F)(F)F)cc(C(F)(F)F)c3)sc2C1` displayed a melting point of 225 to 228 °C.
The value for `CC1(C)CCC(C)(C)c2cc(NC(=O)c3ccc(C(=O)O)nc3)ccc21` was 200 to 201 °C; that for `O=C(C1CC=CCC1)C1CCC2C(C=CC3=CCCc4c3n2c2ccncc42)C1` (configuration not stated) was 156 to 158 °C.
The molecule `Cc1oc2c(NC(=O)c3c(Cl)cccc3Cl)cc(NC(N)=O)cc2c1C` showed a melting point above 250 °C.
Then `COc1cccc(-c2cc(-c3ccoc3)on2)c1`, with 36 to 37 °C.
`CSC1C(=O)Nc2ccc(Oc3ccc(Cl)cc3)cc21` (configuration not stated) returned a melting point of 166 to 169 °C.
The value for `CN1CCN(c2ccc3nc(N)c(C#N)c(NCc4ccccc4)c3c2)CC1` was 176 °C.
The value for `COC(=O)c1cnc(Cl)o1` was 35 to 50 °C.
The value for `CNCc1ccc2c(c1)C(Cc1ccnc(F)c1)(Cc1ccnc(F)c1)c1ccccc1-2` was 130 to 134 °C.
As for `O=CCOc1cccc(C(=O)O)c1`, the melting point was 120 to 130 °C.
Then `COc1ccc(CNc2ccc(C#N)cc2F)cc1`, with 113 °C; and `O=C(O)c1cn(C2COC2)c2c(F)c(N3CCCC3)c(F)cc2c1=O`, with 261 to 262 °C.
Then `CN1C(=O)C=C(c2c[nH]c3ncccc23)C1=O`, with above 250 °C; and `COC(=O)C1=C(C)NC(=S)N(C(=O)OC)C1c1cccc([N+](=O)[O-])c1` (configuration not stated), with 172 to 173 °C.
As for `CN(C)C(=O)Nc1ccc(Oc2ccc(C(F)(F)F)cc2Cl)cc1`, the melting point stood at 140 °C.
Then `O=C(O)c1cn(-c2ccc(F)cc2)c2c(F)c(N3CC4=C(CNC4)C3)c(F)cc2c1=O`, with 195 to 198 °C; and `O=C(NCCCCCCCNC(=O)c1ccc(OC(Cl)(Cl)Cl)cc1)c1ccc(OC(Cl)(Cl)Cl)cc1`, with 152 to 153 °C; and `Cc1ccc2sc3cc(C(=O)O)ccc3c2c1`, with 290 to 291 °C.
The value for `CCCNc1nnc(Cc2c(Cl)cncc2Cl)c2ccc(OC)cc12` was 222 to 223 °C.
Take `CC1C(=O)N(C(=O)NS(=O)(=O)c2ccc(Cl)cc2)N1C(c1ccccc1)c1ccccc1` (configuration not stated): the melting point fell in the range of 124 to 129 °C.
The value for `Cc1c(C(F)(F)F)cnn(-c2cc(OCC3CO3)c(Cl)cc2F)c1=O` (configuration not stated) was 127 °C; that for `O=CNCc1ccc(CN2CCN(c3ccccc3)CC2)cc1` was 108 to 109 °C.
The value for `CC(=O)C(C(C)=O)[C@@H]1NC(=O)[C@@H]1C(C)(C)O` was 109 to 110 °C.
Then `CCN1CCCC1CNC(=O)c1cc(S(=O)(=O)NC)cc2c1OCCO2` (configuration not stated), with 136 to 137 °C.
The molecule `C=CCCOc1ccc(C[C@H](NC(=O)OC(C)(C)C)C(=O)O)cc1` displayed a melting point of 148 to 150 °C.
Then `Cc1cc(N)ccc1-c1ccc(-c2ccc(N)cc2C)o1`, with 174 to 176 °C.
The value for `O=c1ccn([C@H]2C=C[C@@H](O)CC2)c(=O)[nH]1` (racemic) was 161 to 162 °C.
Then `CCCCc1ncc(C=C2C(=O)NC(=O)N2CCCC)n1Cc1ccccc1C(=O)O`, with 287 to 289 °C; and `CCCN(CCC)[C@@H]1CCc2cc(CNC(=O)c3ccc(Cl)cc3)ccc2C1`, with 141 to 142 °C; and `O=C(C=Cc1ccccc1)NN1CC(=O)NC1=O`, with 276 to 278 °C.
As to `CCc1nn(C2CCCC2)c(N)c1C(N)=O`, the melting point lay within 167 to 168 °C.
Take `NC(=O)CN1CC2CCCCCC2C1=O` (configuration not stated): the melting point lay within 145 to 147 °C.
The value for `ClC1Cc2cc(Br)ccc2Sc2ccccc21` (configuration not stated) was 122 to 124 °C; that for `COc1ccc(CCNC(=O)C2CCC2)cc1` was 118 to 120 °C; that for `COc1ccc2sc(Nc3ccc(OCCCl)cc3)nc2c1` was 176 to 178 °C.
The value for `CN1CCN(C(=O)Cn2c(-c3cc(Cl)ccn3)nc3cccnc32)CC1` was 174 to 175 °C; that for `CC(C)(O)CON1C(C)(C)CC(O)CC1(C)C` was 127 to 131 °C.
The value for `CC(C)c1cccc(C(C)C)c1NC(=O)CNC(c1ccccc1)c1cccc(C(=O)O)c1` (configuration not stated) was 190 to 191 °C.
For `O=C(NCc1ccc(Cl)cc1)c1cnc2cc(CCCO)ccc2c1O`, the melting point lay in the range of 166 to 168 °C.
The value for `NC(=O)c1cc2c(Oc3ccc(Cl)c(F)c3)cncc2s1` was 227 to 228 °C; that for `CC1=Cc2ccc(Cl)cc2C(c2ccc([N+](=O)[O-])c(C)c2)=NN1C(=O)Oc1ccccc1` was 188 to 190 °C.
